Laboratory results from patent US20090104335A1, “Healthy Food Product” (priority 2006, published 2009).

experiment: Effect of peptides on incorporation of cholesterol (NBD-cholesterol) into mixed micelles; conditions: Table 3, effect of charge; peptides 1 mg/ml; BA-mix in PBS pH 6.5; micelles without peptide = 100%
Experimental: To form mixed micelles in vitro, 0.1 mM lecithin, 0.05 mM monoolein, 0.1 mM oleic acid and 80 μM cholesterol are mixed in a test tube and dried under a stream of N2. After drying, a 2 mM bile acid mix (BA-mix) in PBS pH 6.5 is added to this lipid mixture. Fluorescent labelled cholesterol (NBD-cholesterol) is used to monitor the incorporation of cholesterol into the mixed micelles.
For testing, peptides (1 mg/ml) are added to the BA-mix and then mixed with lipid-mixtures as described. The whole mixture is vortexed for 15 seconds, followed by an ultrasonic treatment in a waterbath for 30 minutes. From this mixture a sample is taken to measure total NBD-cholesterol concentration. The remaining micelle solution is centrifuged in a table-top ultracentrifuge at 50.000 g for 30 minutes at room temperature.
After centrifugation, samples from the supernatant are taken for the determination of solubilized NBD-cholesterol, which indicates the amount of cholesterol incorporated into mixed micelles. The pellet containing crystallised cholesterol is discarded. NBD-cholesterol is measured at 375/465 nm using a fluorescence plate reader.
Mixed micelle mixtures containing no peptides are used as control (100%). For each example the percentage of incorporated Cholesterol is calculated by dividing the amount of incorporated cholesterol for the tested composition by the amount of incorporated cholesterol in the control sample.

Row | Substance | Incorporated CH (% control = 80 μM cholesterol)
1 | DDDDDD [reference compound] | 136.8 % control
2 | VEWEME [reference compound] | 68.4 % control
3 | VRWRMR | 26.2 % control
4 | RARWRY | 19.3 % control
5 | EAEWEY [reference compound] | 81.3 % control
6 | KKKKKK | 19.9 % control
7 | RRRRRR | 14.8 % control

same assay, conditions: Table 4, effect of length; peptides 1 mg/ml; BA-mix in PBS pH 6.5; micelles without peptide = 100%

Row | Substance | Incorporated CH (% control = 80 μM cholesterol)
8 | RRRR | 32.8 % control
9 | RRRRRRRR [octa-peptide RRRRRRRR, net charge +8] | 8.8 % control
10 | RRRRRR | 10.3 % control
